US12441768B2, “Compositions and methods for treating endometriosis” (EndoMet Biosciences, Inc., priority 2018, dated 2025)
Where a SMILES comes first, the peptide text is derived from it. The star is where a group is joined. Bn = c1ccc(C*)cc1

Legend:
[1] = % Viability non-Wnt responsive cells
[2] = target: Wnt-responsive promoter (TCF/LEF); assay: Wnt-dependent luciferase reporter assay; assay type: cell-based, murine
Method in brief: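 Murine 3T3 fibroblasts carrying a TCF/LEF-driven luciferase reporter, stimulated with Wnt3a in the presence of increasing peptide concentrations or vehicle. Luminescence inhibition gave EC50 values in uM.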

β-catenin = target: T1, β-catenin (Homo sapiens, UniProt P35222); assay: KD50 measurement using competitive fluorescence polarization (FP) with labelled TCF4; assay type: binding; settings: fluorescence polarization, β-catenin; for Kd: read-out: β-Cat FP KD
T1 sequence (P35222 1-781): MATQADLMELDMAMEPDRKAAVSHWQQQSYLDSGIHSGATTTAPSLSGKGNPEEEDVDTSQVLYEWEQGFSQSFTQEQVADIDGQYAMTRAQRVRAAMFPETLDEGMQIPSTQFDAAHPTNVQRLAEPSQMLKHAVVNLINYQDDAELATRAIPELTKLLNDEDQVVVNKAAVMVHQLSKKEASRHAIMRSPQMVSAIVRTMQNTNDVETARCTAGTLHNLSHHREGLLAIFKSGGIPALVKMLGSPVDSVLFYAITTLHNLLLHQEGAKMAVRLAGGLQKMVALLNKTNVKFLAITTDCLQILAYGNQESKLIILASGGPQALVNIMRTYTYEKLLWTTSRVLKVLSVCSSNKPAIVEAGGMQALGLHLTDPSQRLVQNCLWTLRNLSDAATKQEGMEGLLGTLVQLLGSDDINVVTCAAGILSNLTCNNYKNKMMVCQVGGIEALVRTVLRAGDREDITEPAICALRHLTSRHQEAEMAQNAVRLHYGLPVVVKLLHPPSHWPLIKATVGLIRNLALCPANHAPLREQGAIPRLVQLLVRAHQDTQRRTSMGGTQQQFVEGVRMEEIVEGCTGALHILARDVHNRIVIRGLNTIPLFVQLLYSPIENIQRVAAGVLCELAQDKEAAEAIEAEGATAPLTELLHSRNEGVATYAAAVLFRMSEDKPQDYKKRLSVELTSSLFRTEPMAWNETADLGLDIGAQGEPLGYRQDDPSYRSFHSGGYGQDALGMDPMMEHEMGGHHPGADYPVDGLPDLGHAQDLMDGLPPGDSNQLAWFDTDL
Method in brief: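 Labelled TCF4 (5 nM) mixed with 100 nM β-catenin at room temperature; inhibitor added as serial dilutions from 10 nM to 30 uM. Polarization read at excitation 470 nm/emission 520 nm; binding displacement lowers polarization. Three independent runs.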

EC50 [2] [µM]	β-Cat FP Hill slope (β-catenin)	Kd (β-catenin) [µM]	Structure (SMILES)	viability [1] [%]
7.5 to 15	0.7	1 to 10	CCOC[C@H](NC(=O)[C@H](CO)NC(=O)[C@@H](NC(=O)[C@H](CC(C)C)NC(=O)[C@H](Cc1ccccc1)NC(=O)[C@H](Cc1c[nH]c2ccccc12)NC(=O)[C@H](CCSC)NC(=O)[C@H](CCCNC(=N)N)NC(=O)[C@H](CO)NC(=O)[C@@H](N)CCSC)[C@@H](C)CC)C(=O)N[C@@H](Cc1c[nH]c2ccccc12)C(=O)O [compound 105] (H-MSRMWFLISS(Et)W-OH)	96.8
15 to 22.5	0.7	1 to 10	CC[C@H](C)[C@H](NC(=O)[C@H](CC(C)C)NC(=O)[C@H](Cc1ccccc1)NC(=O)[C@H](Cc1c[nH]c2ccccc12)NC(=O)[C@H](CCSC)NC(=O)[C@H](CCCNC(=N)N)NC(=O)[C@H](CO)NC(=O)[C@@H](N)CCSC)C(=O)N[C@@H](CO)C(=O)N[C@@H](COCc1ccccc1)C(=O)N[C@@H](Cc1c[nH]c2ccccc12)C(=O)O [compound 106] (H-MSRMWFLISS(Bn)W-OH)	105
7.5 to 15	0.7	1 to 10	CC[C@H](C)[C@H](NC(=O)[C@H](CC(C)C)NC(=O)[C@H](Cc1ccccc1)NC(=O)[C@H](Cc1c[nH]c2ccccc12)NC(=O)[C@@H](N)CCSC)C(=O)N[C@@H](CO)C(=O)N[C@@H](Cc1ccccc1)C(=O)N[C@@H](Cc1c[nH]c2ccccc12)C(N)=O [compound 107] (H-MWFLISFW-NH2)	100
7.5 to 15	0.7	0.4 to 1	CC[C@H](C)[C@H](NC(=O)[C@H](CC(C)C)NC(=O)[C@H](Cc1ccccc1)NC(=O)[C@H](Cc1c[nH]c2ccccc12)NC(=O)[C@@H](N)CCSC)C(=O)N[C@@H](CO)C(=O)N[C@@H](Cc1ccccc1)C(=O)N[C@@H](Cc1c[nH]c2ccccc12)C(=O)NCC(N)=O [compound 108] (H-MWFLISFWG-NH2)	102
7.5 to 15	3	1 to 10	CC[C@H](C)[C@H](NC(=O)[C@H](CC(C)C)NC(=O)[C@H](Cc1ccccc1)NC(=O)[C@@H](N)Cc1c[nH]c2ccccc12)C(=O)N[C@@H](CO)C(=O)N[C@@H](Cc1ccc(O)cc1)C(=O)N[C@@H](Cc1c[nH]c2ccccc12)C(=O)O [compound 109] (H-WFLISYW-OH)	103
7.5 to 15	3	1 to 10	CC[C@H](C)[C@H](NC(=O)[C@H](CC(C)C)NC(=O)[C@H](Cc1ccccc1)NC(=O)[C@@H](N)Cc1c[nH]c2ccccc12)C(=O)N[C@@H](CO)C(=O)N[C@@H](Cc1ccccc1)C(=O)N[C@@H](Cc1c[nH]c2ccccc12)C(=O)O [compound 110] (H-WFLISFW-OH)	103
7.5 to 15	2.06	0.4 to 1	CC[C@H](C)[C@H](NC(=O)[C@H](CC(C)C)NC(=O)[C@H](Cc1ccccc1)NC(=O)[C@H](Cc1c[nH]c2ccccc12)NC)C(=O)N[C@@H](CO)C(=O)N[C@@H](Cc1ccccc1)C(=O)N[C@@H](Cc1c[nH]c2ccccc12)C(=O)O [compound 111] (HELM PEPTIDE1{[meW].F.L.I.S.F.W}$$$$V2.0)	99.8
< 7.5	1.82	0.4 to 1	CC[C@H](C)[C@H](NC(=O)[C@H](CC(C)C)NC(=O)[C@H](Cc1ccccc1)NC(=O)[C@H](Cc1c[nH]c2ccccc12)NC(=O)[C@@H](N)CCSC)C(=O)N[C@@H](CO)C(=O)N[C@@H](Cc1ccccc1)C(=O)N[C@@H](Cc1c[nH]c2ccccc12)C(=O)O [compound 112] (H-MWFLISFW-OH)	103
> 30	0.7	1 to 10	CC[C@H](C)[C@H](NC(=O)[C@H](CC(C)C)NC(=O)[C@@H](NC(=O)[C@H](Cc1c[nH]c2ccccc12)NC(=O)[C@H](CCSC)NC(=O)[C@@H](N)CCCCN)[C@@H](C)CC)C(=O)N[C@@H](CS)C(=O)N[C@@H](Cc1ccccc1)C(=O)N[C@@H](Cc1c[nH]c2ccccc12)C(=O)NCC(=O)O [compound 113] (H-KMWILICFWG-OH)	102
< 7.5	0.7	1 to 10	CC[C@H](C)[C@H](NC(=O)[C@H](CC(C)C)NC(=O)[C@@H](NC(=O)[C@H](Cc1c[nH]c2ccccc12)NC(=O)[C@H](CCSC)NC(=O)[C@@H](N)Cc1c[nH]cn1)[C@@H](C)CC)C(=O)N[C@@H](CS)C(=O)N[C@@H](Cc1ccccc1)C(=O)N[C@@H](Cc1c[nH]c2ccccc12)C(=O)NCC(=O)O [compound 114] (H-HMWILICFWG-OH)	123
15 to 22.5	0.7	1 to 10	CC[C@H](C)[C@H](NC(=O)[C@H](CC(C)C)NC(=O)[C@@H](NC(=O)[C@H](Cc1c[nH]c2ccccc12)NC(=O)[C@H](CCSC)NC(=O)[C@@H](N)CCCNC(=N)N)[C@@H](C)CC)C(=O)N[C@@H](CS)C(=O)N[C@@H](Cc1ccccc1)C(=O)N[C@@H](Cc1c[nH]c2ccccc12)C(=O)NCC(=O)O [compound 115] (H-RMWILICFWG-OH)	116
< 7.5	0.72	0.4 to 1	CC[C@H](C)[C@H](NC(=O)[C@H](CC(C)C)NC(=O)[C@@H](NC(=O)[C@H](Cc1c[nH]c2ccccc12)NC(=O)[C@@H](N)CCSC)[C@@H](C)CC)C(=O)N[C@@H](CS)C(=O)N[C@@H](Cc1ccccc1)C(=O)N[C@@H](Cc1c[nH]c2ccccc12)C(=O)NCC(=O)O [compound 116] (H-MWILICFWG-OH)	123
15 to 22.5		> 30	CC[C@H](C)[C@H](NC(=O)[C@H](CC(C)C)NC(=O)[C@@H](NC(=O)[C@H](Cc1c[nH]c2ccccc12)NC(=O)[C@@H](N)CCCCN)[C@@H](C)CC)C(=O)N[C@@H](CS)C(=O)N[C@@H](Cc1ccccc1)C(=O)N[C@@H](Cc1c[nH]c2ccccc12)C(=O)NCC(=O)O [compound 117] (H-KWILICFWG-OH)	138
< 7.5		> 30	CC[C@H](C)[C@H](NC(=O)[C@H](CC(C)C)NC(=O)[C@@H](NC(=O)[C@H](Cc1c[nH]c2ccccc12)NC(=O)[C@@H](N)Cc1c[nH]cn1)[C@@H](C)CC)C(=O)N[C@@H](CS)C(=O)N[C@@H](Cc1ccccc1)C(=O)N[C@@H](Cc1c[nH]c2ccccc12)C(=O)NCC(=O)O [compound 118] (H-HWILICFWG-OH)	99.9
7.5 to 15	0.7	1 to 10	CC[C@H](C)[C@H](NC(=O)[C@H](CC(C)C)NC(=O)[C@@H](NC(=O)[C@H](Cc1c[nH]c2ccccc12)NC(=O)[C@@H](N)CCCNC(=N)N)[C@@H](C)CC)C(=O)N[C@@H](CS)C(=O)N[C@@H](Cc1ccccc1)C(=O)N[C@@H](Cc1c[nH]c2ccccc12)C(=O)NCC(=O)O [compound 119] (H-RWILICFWG-OH)	143
< 7.5		> 30	CC[C@H](C)[C@@H]1NC(=O)[C@H](CC(C)C)NC(=O)[C@H]([C@@H](C)CC)NC(=O)[C@H](Cc2c[nH]c3ccccc23)NC(=O)[C@@H](N)CCCCNC(=O)C[C@@H](C(=O)O)NC(=O)[C@H](Cc2c[nH]c3ccccc23)NC(=O)[C@H](Cc2ccccc2)NC(=O)[C@H](CS)NC1=O [compound 120] (HELM PEPTIDE1{K.W.I.L.I.C.F.W.D}$PEPTIDE1,PEPTIDE1,1:R3-9:R3$$$V2.0)	123
< 7.5	0.74	< 0.4	CC[C@H](C)[C@H](NC(=O)[C@H](Cc1c[nH]c2ccccc12)NC(=O)[C@@H](N)CCSC)C(=O)N[C@@H](CC(C)C)C(=O)N[C@H](C(=O)N[C@@H](CS)C(=O)NC(C)(Cc1ccccc1)C(=O)N[C@@H](Cc1c[nH]c2ccccc12)C(=O)NCC(=O)O)[C@@H](C)CC (stereo partly drawn) [compound 121] (HELM PEPTIDE1{M.W.I.L.I.C.[CC(Cc1ccccc1)(N[*:1])C(=O)[*:2]].W.G}$$$$V2.0)	150
22.5 to 30	1.55	< 0.4	CC[C@H](C)[C@H](NC(=O)[C@H](CC(C)C)NC(=O)[C@@H](NC(=O)[C@H](Cc1c[nH]c2ccccc12)NC(=O)[C@H](CCSC)NC(=O)[C@@H](N)CCCCN)[C@@H](C)CC)C(=O)N[C@@H](CO)C(=O)N[C@@H](Cc1ccccc1)C(=O)N[C@@H](Cc1c[nH]c2ccccc12)C(=O)NCC(=O)O [compound 122] (H-KMWILISFWG-OH)	113
